The first assay deals with hedgehog signaling pathway. The assay is described as follows: Gli-Luc Reporter Assay for Hh Pathway Inhibition (TMHh-12 cells, pTA-8×Gli-Luc reporter). In kind it is cell-based, Mouse. The settings on record: Mus musculus, TMHh12, Ag1.5 1 nM; read-out: Hedgehog Inhibition IC50 (nM) (Ag1.5 1 nM). The method in brief:
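Mouse TM3 cells stably carrying an 8×Gli-firefly luciferase reporter, in 2% FBS medium; pathway activated with recombinant mouse Shh (8 μg/mL) or Smo agonist, compounds added at varying concentrations for 48 h. Luminescence read; IC50 at 50% signal reduction. Toxicity checked in TM3 cells (CellTiter-Glo) or constitutive-luciferase TM3-Luc cells.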
(In a reporter assay the amount or activity of a reporter protein is the signal.)
Consider `COc1ccc(-c2cc(Nc3cccc4c3CCN(C3CS(=O)(=O)C3)C4)ccc2C)nn1` [Compound 276], for which the IC50 was 9.8 nM.

The assay is the same for the next values; noted with them: Mus musculus, TMHh12, enzymatic and cellular assays for the inhibition of hedgehog signaling pathways; read-out: IC50 Ranges.
Regarding `Cc1ccc(Nc2cccc3c2CCN(S(C)(=O)=O)C3)cc1COc1ccccn1` [Compound 237], the IC50 fell in the range of 100 to 1000 nM.

In the case of `COc1ccnc(-c2cc(Nc3cccc4c3CCN(S(C)(=O)=O)C4)ccc2C)n1` [Compound 239], the IC50 was 10 to 100 nM.

Consider `Cc1cnc(-c2cc(Nc3cccc4c3CCN(S(C)(=O)=O)C4)ccc2C)cc1C` [Compound 241], for which the IC50 fell in the range of 0.001 to 1 nM.

Consider `Cc1ccc(Nc2nccc3c2CCN(S(C)(=O)=O)C3)cc1-c1ccc(F)cn1` [Compound 244], for which the IC50 was in the range of 100 to 1000 nM.

For `Cc1ccc(Nc2cccc3c2CCN(CCS(C)(=O)=O)C3)cc1-c1ccc(C#N)cn1` [Compound 245], the IC50 was 1 to 10 nM.

For `Cc1ccc(Nc2cccc3c2CCN(CCS(C)(=O)=O)C3)cc1C(=O)Nc1ccccc1` [Compound 246], the concentration for half-maximal inhibition (IC50) lay in the range of 10 to 100 nM.

Take `Cc1ccc(Nc2nccc3c2CCN(S(C)(=O)=O)C3)cc1C(=O)Nc1ccccc1` [Compound 247]: the IC50 lay in the range of 10 to 100 nM.

With `Cc1ccc(-c2cc(Nc3ncnc4c3CCN(S(C)(=O)=O)C4)ccc2C)nc1` [Compound 248], the IC50 lay in the range of 1 to 10 nM.

For the molecule `Cc1ccc(Nc2cccc3c2CCN(C2CCS(=O)(=O)C2)C3)cc1-c1ccc(F)cn1` (stereo not shown) [Compound 250], the IC50 lay within 0.001 to 1 nM.

For the molecule `Cc1ccc(-c2cc(Nc3cccc4c3CCN(CCC(F)(F)F)C4)ccc2C)nc1` [Compound 251], the IC50 fell in the range of 0.001 to 1 nM.

Turning to `Cc1ccc(Nc2cccc3c2CCN(CCC(F)(F)F)C3)cc1-c1ccc(F)cn1` [Compound 252], the IC50 fell in the range of 0.001 to 1 nM.

For `Cc1ccc(Nc2cccc3c2CCN(S(C)(=O)=O)C3)cc1-c1cnc(N(C)C)cn1` [Compound 253], the concentration for half-maximal inhibition (IC50) is 1 to 10 nM.

Regarding `Cc1ccc(Nc2cccc3c2CCN(S(C)(=O)=O)C3)cc1-c1ccc(N(C)C)nn1` [Compound 254], the half-inhibitory concentration (IC50) lay within 1 to 10 nM.

For `COc1cncc(-c2cc(Nc3cccc4c3CCN(S(C)(=O)=O)C4)ccc2C)n1` [Compound 255], the IC50 lay within 100 to 1000 nM.

For the molecule `COc1ccc(-c2cc(Nc3cccc4c3CCN(C3CCS(=O)(=O)C3)C4)ccc2C)nn1` (stereo not shown) [Compound 256], the IC50 fell in the range of 0.001 to 1 nM.

For `Cc1ccc(Nc2cccc3c2CCN(CCS(C)(=O)=O)C3)cc1-c1ccc(Cl)cn1` [Compound 257], the IC50 lay in the range of 0.001 to 1 nM.

`COc1ccc(-c2cc(Nc3cccc4c3CCN(CCS(C)(=O)=O)C4)ccc2C)nn1` [Compound 258]: the concentration for half-maximal inhibition (IC50) lay within 1 to 10 nM.

`Cc1ccc(Nc2cccc3c2CCN(CCS(C)(=O)=O)C3)cc1-c1ccc(C(F)(F)F)cn1` [Compound 259]: the IC50 was 1 to 10 nM.

Turning to `Cc1ccc(Nc2cccc3c2CCN(CCS(C)(=O)=O)C3)cc1-c1ncccc1F` [Compound 260], the IC50 lay within 1 to 10 nM.

Consider `CCS(=O)(=O)CCN1CCc2c(cccc2Nc2ccc(C)c(-c3ccc(C)cn3)c2)C1` [Compound 261], for which the IC50 lay within 0.001 to 1 nM.

Regarding `Cc1ccc(Nc2cccc3c2CCN(CCS(C)(=O)=O)C3)cc1-c1ccccn1` [Compound 262], the IC50 is 1 to 10 nM.

For the molecule `Cc1cnc(-c2cc(Nc3cccc4c3CCN(CCS(C)(=O)=O)C4)ccc2C)nc1` [Compound 263], the concentration for half-maximal inhibition (IC50) was in the range of 100 to 1000 nM.

On to `COc1cnc(-c2cc(Nc3cccc4c3CCN(CCS(C)(=O)=O)C4)ccc2C)cn1` [Compound 264], for which the IC50 lay in the range of 1 to 10 nM.

In the case of `Cc1ccc(Nc2cccc3c2CCN(C2CCS(=O)(=O)C2)C3)cc1-c1ccccn1` (stereo not shown) [Compound 265], the IC50 lay in the range of 0.001 to 1 nM.

Consider `COc1cnc(-c2cc(Nc3cccc4c3CCN(C3CCS(=O)(=O)C3)C4)ccc2C)cn1` (stereo not shown) [Compound 266], for which the IC50 lay within 1 to 10 nM.

`Cc1cnc(-c2cc(Nc3cccc4c3CCN(C3CCS(=O)(=O)C3)C4)ccc2C)nc1` (stereo not shown) [Compound 267]: the IC50 is 10 to 100 nM.

`Cc1ccc(Nc2cccc3c2CCN(C2CCS(=O)(=O)C2)C3)cc1-c1ncccc1F` (stereo not shown) [Compound 268]: the IC50 lay within 0.001 to 1 nM.

Take `Cc1ccc(Nc2cccc3c2CCN(C2CCS(=O)(=O)CC2)C3)cc1-c1ncccc1F` [Compound 269]: the IC50 is 0.001 to 1 nM.

Regarding `COc1cnnc(-c2cc(Nc3cccc4c3CCN(S(C)(=O)=O)C4)ccc2C)c1` [Compound 270], the IC50 is 10 to 100 nM.

`CCOc1ccc(-c2cc(Nc3cccc4c3CCN(S(C)(=O)=O)C4)ccc2C)nn1` [Compound 271]: the IC50 fell in the range of 0.001 to 1 nM.

In the case of `Cc1ccc(Nc2cccc3c2CCN(S(C)(=O)=O)C3)cc1-c1ncc(F)cc1F` [Compound 272], the IC50 was 1 to 10 nM.

With `Cc1ccc(-c2nc(Nc3cccc4c3CCN(S(C)(=O)=O)C4)ccc2Cl)nc1` [Compound 273], the IC50 fell in the range of 0.001 to 1 nM.

For the molecule `Cc1ccc(-c2nc(Nc3cccc4c3CCN(S(C)(=O)=O)C4)ccc2C)nc1` [Compound 274], the IC50 lay within 0.001 to 1 nM.

Regarding `Cc1ccc(Nc2cccc3c2CCN(C2CS(=O)(=O)C2)C3)cc1-c1ncccc1F` [Compound 275], the IC50 was in the range of 1 to 10 nM.

Consider `COc1ccc(-c2cc(Nc3cccc4c3CCN(C3CS(=O)(=O)C3)C4)ccc2C)nn1` [Compound 276], for which the IC50 lay in the range of 1 to 10 nM.

Regarding `Cc1ccc(-c2cc(Nc3ncnc4c3CCN(C3CCS(=O)(=O)CC3)C4)ccc2C)nc1` [Compound 277], the IC50 is 10 to 100 nM.

Turning to `Cc1ccc(-c2nc(Nc3cccc4c3CCN(CCS(C)(=O)=O)C4)ccc2Cl)nc1` [Compound 278], the IC50 was 1 to 10 nM.

Consider `Cc1ccc(-c2cc(Nc3cccc4c3CCN([C@@H]3CCS(=O)(=O)C3)C4)ccc2C)nc1` [Compound 279], for which the IC50 is 0.001 to 1 nM.

Take `Cc1ccc(-c2cc(Nc3cccc4c3CCN([C@H]3CCS(=O)(=O)C3)C4)ccc2C)nc1` [Compound 280]: the IC50 is 0.001 to 1 nM.

With `CCS(=O)(=O)CCN1CCc2c(cccc2Nc2ccc(C)c(-c3ccc(F)cn3)c2)C1` [Compound 281], the IC50 fell in the range of 1 to 10 nM.

On to `CCS(=O)(=O)CCN1CCc2c(cccc2Nc2ccc(C)c(-c3ccc(OC)nn3)c2)C1` [Compound 282], for which the IC50 was in the range of 1 to 10 nM.

`CCS(=O)(=O)CCN1CCc2c(cccc2Nc2ccc(C)c(-c3ncccc3F)c2)C1` [Compound 283]: the IC50 was in the range of 1 to 10 nM.

For the molecule `Cc1ccc(-c2nc(Nc3cccc4c3CCN(C3CS(=O)(=O)C3)C4)ccc2C)nc1` [Compound 285], the IC50 is 10 to 100 nM.

With `Cc1ccc(Nc2cccc3c2CCN([C@H]2CCS(=O)(=O)C2)C3)cc1-c1ncccc1F` [Compound 286], the IC50 lay in the range of 0.001 to 1 nM.

As for `Cc1ccc(-c2cc(Nc3ncnc4c3CCN(C3CS(=O)(=O)C3)C4)ccc2C)nc1` [Compound 288], the IC50 is 10 to 100 nM.

For the molecule `Cc1ccc(Nc2cccc3c2CCN(S(=O)(=O)CCN(C)C)C3)cc1-c1ncccc1F` [Compound 289], the IC50 fell in the range of 0.001 to 1 nM.

Turning to `Cc1ccc(Nc2cccc3c2CCN(S(C)(=O)=O)C3)cc1-c1ncc(Cl)cc1F` [Compound 290], the IC50 is 0.001 to 1 nM.

With `Cc1ccc(Nc2cccc3c2CCN(S(C)(=O)=O)C3)cc1-c1ccc(N(C)C)cn1` [Compound 291], the IC50 was in the range of 0.001 to 1 nM.

For the molecule `Cc1ccc(-c2cc(Nc3ncnc4c3CCN(S(=O)(=O)C(C)C)C4)ccc2C)nc1` [Compound 292], the IC50 lay within 1 to 10 nM.

Regarding `CCS(=O)(=O)N1CCc2c(ncnc2Nc2ccc(C)c(-c3ccc(C)cn3)c2)C1` [Compound 293], the concentration for half-maximal inhibition (IC50) lay in the range of 0.001 to 1 nM.

Regarding `CCOc1ccc(-c2cc(Nc3cccc4c3CCN(CCS(C)(=O)=O)C4)ccc2C)nn1` [Compound 294], the IC50 was 1 to 10 nM.

Turning to `CCOc1ccc(-c2cc(Nc3cccc4c3CCN(C3CS(=O)(=O)C3)C4)ccc2C)nn1` [Compound 295], the IC50 was in the range of 1 to 10 nM.

As to `CCOc1ccc(-c2cc(Nc3cccc4c3CCN(C3CCS(=O)(=O)C3)C4)ccc2C)nn1` (stereo not shown) [Compound 296], the IC50 is 1 to 10 nM.

In the case of `CCOc1ccc(-c2cc(Nc3cccc4c3CCN(CCS(=O)(=O)CC)C4)ccc2C)nn1` [Compound 297], the IC50 fell in the range of 1 to 10 nM.

For the molecule `Cc1ccc(Nc2ncnc3c2CCN(S(C)(=O)=O)C3)cc1-c1ccc(F)cn1` [Compound 298], the IC50 lay within 10 to 100 nM.

Consider `CCS(=O)(=O)N1CCc2c(ncnc2Nc2ccc(C)c(-c3ccc(F)cn3)c2)C1` [Compound 299], for which the half-inhibitory concentration (IC50) was in the range of 0.001 to 1 nM.

Take `Cc1ccc(Nc2ncnc3c2CCN(S(=O)(=O)C(C)C)C3)cc1-c1ccc(F)cn1` [Compound 300]: the half-maximal inhibitory concentration (IC50) fell in the range of 0.001 to 1 nM.

In the case of `Cc1ccc(Nc2ncnc3c2CCN(S(C)(=O)=O)C3)cc1C(=O)Nc1ccccc1` [Compound 301], the IC50 fell in the range of 100 to 1000 nM.

With `CS(=O)(=O)CCN1CCc2c(cccc2Nc2ccc(Cl)c(-c3ccc(F)cn3)n2)C1` [Compound 302], the IC50 lay within 10 to 100 nM.

As to `CS(=O)(=O)N1CCc2c(cccc2Nc2ccc(Cl)c(-c3ccc(F)cn3)n2)C1` [Compound 303], the IC50 lay within 1 to 10 nM.

Consider `Cc1ccc(Nc2ncnc3c2CCN(C2CS(=O)(=O)C2)C3)cc1-c1cc2ccccc2cn1` [Compound 304], for which the IC50 is 10 to 100 nM.

With `Cc1ccc(Nc2ncnc3c2CCN(CCS(C)(=O)=O)C3)cc1-c1cc2ccccc2cn1` [Compound 305], the half-inhibitory concentration (IC50) was 10 to 100 nM.

With `COc1ccc(-c2cc(Nc3cccc4c3CCN(C3CCS(=O)(=O)CC3)C4)ccc2C)nn1` [Compound 306], the half-inhibitory concentration (IC50) lay in the range of 1 to 10 nM.

Take `Cc1ccc(Nc2ncnc3c2CCN(S(C)(=O)=O)C3)cc1-c1cc2ccccc2cn1` [Compound 307]: the IC50 was in the range of 0.001 to 1 nM.

With `CCOc1cnc(-c2cc(Nc3cccc4c3CCN(C3CCS(=O)(=O)C3)C4)ccc2C)cn1` (stereo not shown) [Compound 308], the IC50 fell in the range of 1 to 10 nM.

Regarding `Cc1ccc(-c2nc(Nc3cccc4c3CCN(CCS(C)(=O)=O)C4)ccc2C)nc1` [Compound 309], the IC50 lay in the range of 10 to 100 nM.

Turning to `CCOc1cnc(-c2cc(Nc3cccc4c3CCN(CCS(C)(=O)=O)C4)ccc2C)cn1` [Compound 310], the IC50 was 1 to 10 nM.

Turning to `Cc1ccc(Nc2cccc3c2CCN(CCS(C)(=O)=O)C3)nc1-c1ccccn1` [Compound 311], the IC50 was 10 to 100 nM.

The same assay, now with this note: enzymatic and cellular assays for the inhibition of hedgehog signaling pathways; read-out: IC50 Ranges.
Regarding `Cc1ccc(Nc2cccc3c2CCN([C@@H]2CCS(=O)(=O)C2)C3)cc1-c1ncccc1F` [Compound 287], the IC50 fell in the range of 1 to 10 nM.

For orientation: IC50 means the concentration that gives 50% inhibition.

Values taken from patent US9216964B2, “Hedgehog pathway modulators” (Novartis AG, priority 2008, dated 2015).
